From publication PMC11442653, “Treating ICB-resistant cancer by inhibiting PD-L1 via DHHC3 degradation induced by cell penetrating peptide-induced chimera conjugates” (Cell Death & Disease, 2024)

How the values were obtained:
4T1 cells [1] = assay: 4T1 xenograft model in BALB/c mice, antitumor effect; format: in vivo, mouse
Protocol: Female BALB/c mice, aged 6–8 weeks and weighing approximately 20 g were procured from the Wuhan Experimental Animal Center, Hubei, China. In vivo studies assessing antitumor effects were performed according to the protocols of the Experimental Animal Welfare and Ethics Committee at Wuhan University. These studies complied with the National Research Council’s guidelines detailed in the “Guide for the Care and Use of Laboratory Animals.” Cells were harvested in an optimal growth phase with approximately 80% confluence, centrifuged to discard the supernatant, and 2 million 4T1 cells were resuspended in 125 µL of PBS. This cell suspension was subcutaneously injected into the dorsal flank of mice to initiate the tumor model. Tumor dimensions were regularly measured using calipers, and the volume was calculated using the following formula: (length × width²)/2. When the tumor volume was 80–100 mm³, the tumor-bearing mice were allocated for further in vivo investigation. […] The treatments were administered via tail vein injections on days 0, 2, 4, 6, 8, 10, and 12. Throughout the experiment, both the weight of the mice and tumor volume were recorded. On day 18, the mice were euthanized via cervical dislocation. The tumors were excised for measurement, photographic documentation, and weighing.

4T1 cells [2] = assay: Activity against ICB-resistant 4T1 tumors in vitro (PD-L1 blockers); format: cell-based, mouse
C33A cells [3] = assay: TUNEL apoptosis assay with cisplatin; format: cell-based, human; conditions: cisplatin vs control
Protocol: Cells were seeded in 6-well plates at a density between 30% and 50%. Following complete adhesion, various treatments were applied: PBS alone, cisplatin, or a combination of cisplatin and PCC16 for 4 h each. After incubation, the medium was replaced and the cells were rinsed with PBS. The cells were fixed with 4% paraformaldehyde for half an hour and washed again with PBS. To permeabilize the cells, PBS mixed with 0.3% Triton X-100 was added and the cells were incubated at room temperature for 5 min. A specific quantity of the terminal deoxynucleotidyl transferase dUTP nick end labeling (TUNEL) assay reagent was prepared and mixed. After washing the cells on coverslips with PBS twice, 50 µL of the TUNEL reagent was applied to each cell sample. These samples were then incubated at 37 °C in a dark environment for 60 min. The samples were then washed three times with PBS and stained with DAPI for 3–5 min, followed by washing with PBS twice. The final step involved mounting the samples for observation under a fluorescence microscope using an excitation wavelength range of 450–500 nm and an emission wavelength range of 515–565 nm to detect green fluorescence.

C33A cells [4] = assay: Ki67 proliferation assay with cisplatin; format: cell-based, human; conditions: cisplatin vs control
C33A cells [5] = assay: Colony formation assay with cisplatin; format: cell-based, human; conditions: vs control; 4 h treatment, then 7 days
Protocol: The procedure commenced by counting and seeding cancer cells into a 6-well plate, with each well containing approximately 1000 cells. Following complete cell adhesion, various treatments were applied to each well, including a control PBS solution, cisplatin alone, and a combination of cisplatin and PCC16. This was followed by a 4-h incubation period. Subsequently, the initial culture medium was discarded, and the cells were incubated for additional 7 days in a fresh complete medium, which was renewed every 2–3 days. The cultivation process was halted on the formation of visible colonies detectable under a microscope, with each colony comprising approximately 60–80 cells. Double washing with PBS was conducted, followed by a 20-min fixation of the cells using a tissue cell fixative. After fixation, the cells were washed twice with PBS and stained with 0.1% crystal violet for 20 min. After rinsing the excess stain with deionized water, the plates were air-dried at ambient temperature. The colonies were photographed for documentation, and the cell colony counts in each treatment group was recorded.

SMILES	effect on ICB-resistant tumors in vivo (4T1 cells [1]; 4T1)	average tumor weight, percent of control group (4T1 cells [1]; 4T1 xenograft, BALB/c mice, tail vein days 0, 2, 4, 6, 8, 10, 12, n = 4)	tumor weight and size (4T1 cells [1]; 4T1 xenograft, vs control, n = 4)	effect on ICB-resistant tumors in vitro (4T1 cells [2])	apoptosis (C33A cells [3])	cell proliferation (Ki67) (C33A cells [4])	number of C33A colonies (C33A cells [5])
Cc1c(COc2ccc(CN3CCCCC3C(=O)O)cc2Br)cccc1-c1ccccc1 (stereo not shown) [BMS-8]	no significant effect on ICB-resistant tumors	90.8%	slight decrease in weight and size	no significant effect on ICB-resistant tumors			
N.N.[Cl][Pt][Cl] [cisplatin]					apoptosis increased	cell proliferation decreased	decreased
